One data set deals with S2-013 cells. Kind of data set: Matrigel invasion assay. The note with it: unmodified siRNA added with folic acid-cationic oligopeptide complex (Fol-Dab8A and Fol-Dab8B); versus control siRNA, P<0.05. Type of data set: cell-based, human. On the procedure:
Each of the scrambled control siRNA, SNORA18 siRNA, NUP85 siRNA, WASF2 siRNA, and SNORA22 siRNA (all used in Example 5) with the folic acid-cationic oligopeptide complex added was added to the culture solution of S2-013 cells, and Matrigel invasion assay was performed after 48 hours.
4.0×10^4 cells were suspended in a serum-free medium and seeded in the upper chamber of a Matrigel Invasion Chamber (24-well plate, pore size: 8 μm, manufactured by Becton, Dickinson, and Company). A solvent containing 5% fetal bovine serum was added to the lower chamber. After the cells were incubated in the upper chamber for 20 hours, three independent areas were observed under a microscope, and the cells invading the lower chamber were counted. The same experiment was repeated three times, and the cell invasion ability of 52-013 cells into which each siRNA was taken up was compared.
The “*” denotes a significant difference at P<0.05 as compared to the control in the t-test.
Each of the scrambled control siRNA (SEQ ID NOs: 3 and 4), SNORA18 siRNA (SEQ ID NOs: 21 and 22), NUP85 siRNA (SEQ ID NOs: 23 and 24), WASF2 siRNA (SEQ ID NOs: 25 and 26), and SNORA22 siRNA (SEQ ID NOs: 27 and 28) was added with 2 equivalents of Dab8, Fol-Dab8A, or Fol-Dab8B to the culture solution of pancreatic cancer cell line S2-013 in culture. As a control, each of the control siRNA, SNORA18 siRNA, NUP85 siRNA, WASF2 siRNA, and SNORA22 siRNA was added alone to the culture solution of the S2-013 cells.
After 48 hours of culture, the Matrigel invasion assay was performed. In the Matrigel invasion assay, the number of cells that have migrated from the upper chamber to the lower chamber is shown. The “*” denotes a significant difference at P<0.05 as compared to the control in the t-test.

For data set [1], the system named is S2-013 pancreatic cancer cells. Kind of data set: Lysosome (LysoTracker) and siRNA staining, confocal microscopy. Type of data set: cell-based, human. To be noted: chemically-modified Alexa488-labeled siRNA with Fol-Dab8A or Fol-Dab8B, 2 equivalents, overnight.

The values below come from US20220380763A1, “NUCLEIC ACID DELIVERY ENHANCER” (NATIONAL UNIVERSITY CORPORATION KOCHI UNIVERSITY, priority 2019, published 2022).

Turning to “NUP85 siRNA: double-stranded siRNA against NUP85, SEQ ID NOs: 7 and 8 (Table 2) (chain 1 CAGCGGCAGAUGACUGAACAA; chain 2 UUGUUCAGUCAUCUGCCGCUG; listed as RNA, chemistry not given here)”, the cell invasion result in the data set on S2-013 cells is “significantly suppressed”.
On the same count and under the same terms, as for “SNORA18 siRNA: double-stranded siRNA against SNORA18, SEQ ID NOs: 5 and 6 (Table 2) (chain 1 UUUACUUUACUCACAGGACUA; chain 2 UAGUCCUGUGAGUAAAGUAAA; listed as RNA, chemistry not given here)”, the entry is “significantly suppressed”.
On to “SNORA22 siRNA: double-stranded siRNA against SNORA22, SEQ ID NOs: 11 and 12 (Table 2) (chain 1 CUUGGCUUUGACCCUGUGCUA; chain 2 UAGCACAGGGUCAAAGCCAAG; chemistry not given here)”, for which the cell invasion result in the data set on S2-013 cells is reported as “significantly suppressed”. Besides, the “intracellular localization of siRNA” value in data set [1] is “localized in lysosomes”.
As for “WASF2 siRNA: double-stranded siRNA against WASF2, SEQ ID NOs: 9 and 10 (Table 2) (chain 1 UAGGAUUAGAUCAUUAGCUCA; chain 2 UGAGCUAAUGAUCUAAUCCUA; listed as RNA, chemistry not given here)”, in the data set on S2-013 cells, the cell invasion result is “significantly suppressed”.
